The text below walks through data of patent US10173991B2, “Sulfone amide linked benzothiazole inhibitors of endothelial lipase” (BRISTOL-MYERS SQUIBB COMPANY, priority 2014, dated 2019).

Broadly, the IC50 is the point on the concentration scale where inhibition reaches its midpoint. A low value points to greater potency in that assay.

The target in this assay is Endothelial lipase (EL) (Homo sapiens (Human), UniProt Q9Y5X9). Nature of the assay: Endothelial lipase (EL) enzymatic assay with fluorescent substrate A10070 in DMPG vesicles. It is filed as biochemical. In outline: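 EL from conditioned medium of HT-1080 cells engineered to overexpress endogenous EL; HL partially purified from conditioned medium of HL-overexpressing COS cells. Enzyme preincubated with compound 30 min at 37° C in 50 mM HEPES pH 8.0, 50 mM NaCl, 1 mM CaCl2; DMPG vesicles carrying FRET substrate (0.11 mole fraction) then added.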
Sequence of Endothelial lipase (EL) (Q9Y5X9 21-500): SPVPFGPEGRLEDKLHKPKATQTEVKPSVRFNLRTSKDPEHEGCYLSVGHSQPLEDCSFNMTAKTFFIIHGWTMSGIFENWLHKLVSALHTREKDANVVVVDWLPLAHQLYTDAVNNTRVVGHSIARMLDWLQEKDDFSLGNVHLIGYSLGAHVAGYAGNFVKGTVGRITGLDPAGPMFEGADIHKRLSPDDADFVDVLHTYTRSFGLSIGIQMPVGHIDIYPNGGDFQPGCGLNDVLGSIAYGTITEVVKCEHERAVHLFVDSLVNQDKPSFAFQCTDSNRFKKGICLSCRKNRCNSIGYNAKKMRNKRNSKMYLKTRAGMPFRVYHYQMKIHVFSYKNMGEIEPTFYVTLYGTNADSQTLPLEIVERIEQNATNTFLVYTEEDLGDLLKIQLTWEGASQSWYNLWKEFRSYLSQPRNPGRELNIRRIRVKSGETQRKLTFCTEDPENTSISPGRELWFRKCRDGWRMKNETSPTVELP
As for `CC(C)S(=O)(=O)C(C(=O)NCC(=O)NC1CC1)c1nc2cc(F)c(-c3ccc(C4CC4)nc3)cc2s1` (stereo not drawn) [Example 241, N-[(cyclopropyl-carbamoyl)methyl]-2-[6-(6-cyclopropyl-pyridin-3-yl)-5-fluoro-1,3-benzothiazol-2-yl]-2-(propane-2-sulfonyl) acetamide], 17 nM corresponded to half-maximal inhibition (IC50). `CC(C)S(=O)(=O)C(C(=O)NCC(=O)NC1CC1)c1nc2cc(F)c(-c3ccc4c(=O)n(C)ccc4c3)cc2s1` (stereo not drawn) [Example 242, N-[(cyclopropyl-carbamoyl)methyl]-2-[5-fluoro-6-(2-methyl-1-oxo-1,2-dihydro-isoquinolin-6-yl)-1,3-benzothiazol-2-yl]-2-(propane-2-sulfonyl) acetamide]: the IC50 turned out to be 4 nM.

As to `CC(C)S(=O)(=O)C(C(=O)NCC(=O)NC1CC1)c1nc2cc(F)c(-c3cnc(C4CC4)nc3)cc2s1` (stereo not drawn) [Example 243, N-[(cyclopropyl-carbamoyl)methyl]-2-[6-(2-cyclopropyl-pyrimidin-5-yl)-5-fluoro-1,3-benzothiazol-2-yl]-2-(propane-2-sulfonyl) acetamide], 33 nM corresponded to half-maximal inhibition (IC50). The compound `CC(C)S(=O)(=O)C(C(=O)NCC(=O)NC1CC1)c1nc2cc(F)c(-c3ccc(C(=O)N4CCC4)cc3)cc2s1` (stereo not drawn) [Example 244, 2-{6-[4-(azetidine-1-carbonyl)phenyl]-5-fluoro-1,3-benzothiazol-2-yl}-N-[(cyclopropyl-carbamoyl)methyl]-2-(propane-2-sulfonyl)acetamide] registered an IC50 of 7 nM.

Regarding `Cc1cc(-c2cc3sc(C(C(=O)NCC(=O)NC4CC4)S(=O)(=O)C(C)C)nc3cc2F)ccn1` (stereo not drawn) [Example 245, N-[(cyclopropyl-carbamoyl)methyl]-2-[5-fluoro-6-(2-methylpyridin-4-yl)-1,3-benzothiazol-2-yl]-2-(propane-2-sulfonyl)acetamide], the IC50 was found to be 12 nM. The figure for `Cc1ccc(-c2cc3sc(C(C(=O)NCC(=O)NC4CC4)S(=O)(=O)C(C)C)nc3cc2F)cn1` (stereo not drawn) [Example 246, N-[(cyclopropyl-carbamoyl)methyl]-2-[5-fluoro-6-(6-methylpyridin-3-yl)-1,3-benzothiazol-2-yl]-2-(propane-2-sulfonyl)acetamide] is 12 nM; for `CC(C)S(=O)(=O)C(C(=O)NCC(=O)NC1CC1)c1nc2cc(F)c(-c3ccc(C(=O)Nc4nccs4)cc3)cc2s1` (stereo not drawn) [Example 247, 4-[2-({[(cyclopropyl-carbamoyl)methyl]carbamoyl} (propane-2-sulfonyl)methyl)-5-fluoro-1,3-benzothiazol-6-yl]-N-(1,3-thiazol-2-yl) benzamide] it is 11 nM.

`Cc1nc2cc(-c3cc4sc(C(C(=O)NCC(=O)NC5CC5)S(C)(=O)=O)nc4cc3F)ccc2s1` (stereo not drawn) [Example 248, N-[(cyclopropyl-carbamoyl)methyl]-2-[5-fluoro-6-(2-methyl-1,3-benzothiazol-5-yl)-1,3-benzothiazol-2-yl]-2-methanesulfonyl-acetamide] gave a 50% inhibitory concentration (IC50) of 1 nM. For the compound `CC(C)S(=O)(=O)C(C(=O)NCC(=O)NC1CC1)c1nc2cc(F)c(-c3ccc(C#N)nc3)cc2s1` (stereo not drawn) [Example 249, 2-[6-(6-cyanopyridin-3-yl)-5-fluoro-1,3-benzothiazol-2-yl]-N-[(cyclopropyl-carbamoyl)methyl]-2-(propane-2-sulfonyl)acetamide], the half-maximal inhibitory concentration (IC50) was found to be 29 nM. `Cc1cc(-c2cc3sc(C(C(=O)NCC(=O)NC4CC4)S(C)(=O)=O)nc3cc2F)ccn1` (stereo not drawn) [Example 250, N-[(cyclopropyl-carbamoyl)methyl]-2-[5-fluoro-6-(2-methylpyridin-4-yl)-1,3-benzothiazol-2-yl]-2-methanesulfonyl-acetamide] came in with a half-maximal inhibitory concentration (IC50) of 11 nM.

`CC(C)c1ccc(-c2cc3sc(C(C(=O)NCC(=O)NC4CC4)S(=O)(=O)C(C)C)nc3cc2F)cn1` (stereo not drawn) [Example 251, N-[(cyclopropyl-carbamoyl)methyl]-2-{5-fluoro-6-[6-(propan-2-yl)pyridin-3-yl]-1,3-benzothiazol-2-yl}-2-(propane-2-sulfonyl) acetamide] showed a half-maximal inhibitory concentration (IC50) of 8 nM. `Cc1ccc(-c2cc3sc(C(C(=O)NCC(=O)NC4CC4)S(=O)(=O)C(C)C)nc3cc2C)cn1` (stereo not drawn) [Example 252, N-[(cyclopropyl-carbamoyl)methyl]-2-[5-methyl-6-(6-methylpyridin-3-yl)-1,3-benzothiazol-2-yl]-2-(propane-2-sulfonyl)acetamide] showed an IC50 of 15 nM. The compound `Cc1cc2nc(C(C(=O)NCC(=O)NC3CC3)S(=O)(=O)C(C)C)sc2cc1-c1ccc(C(C)C)nc1` (stereo not drawn) [Example 253, N-[(cyclopropyl-carbamoyl)methyl]-2-{5-methyl-6-[6-(propan-2-yl)pyridin-3-yl]-1,3-benzothiazol-2-yl}-2-(propane-2-sulfonyl) acetamide] showed an IC50 of 7 nM. For the compound `Cc1cc2nc(C(C(=O)NCC(=O)NC3CC3)S(=O)(=O)C(C)C)sc2cc1-c1ccc(C#N)nc1` (stereo not drawn) [Example 254, 2-[6-(6-cyanopyridin-3-yl)-5-methyl-1,3-benzothiazol-2-yl]-N-[(cyclopropyl-carbamoyl)methyl]-2-(propane-2-sulfonyl)acetamide], the concentration for half-maximal inhibition (IC50) was 9 nM. Take `Cc1cc(-c2cc3sc(C(C(=O)NCC(=O)NC4CC4)S(=O)(=O)C(C)C)nc3cc2C)ccn1` (stereo not drawn) [Example 255, N-[(cyclopropyl-carbamoyl)methyl]-2-[5-methyl-6-(2-methylpyridin-4-yl)-1,3-benzothiazol-2-yl]-2-(propane-2-sulfonyl) acetamide]: the IC50 turned out to be 5 nM.

`Cc1cc2nc(C(C(=O)NCC(=O)NC3CC3)S(=O)(=O)C(C)C)sc2cc1-c1ccc2c(=O)n(C)ccc2c1` (stereo not drawn) [Example 256, N-[(cyclopropyl-carbamoyl)methyl]-2-[5-methyl-6-(2-methyl-1-oxo-1,2-dihydro-isoquinolin-6-yl)-1,3-benzothiazol-2-yl]-2-(propane-2-sulfonyl) acetamide] displayed a 50% inhibitory concentration (IC50) of 3 nM. With `Cc1cc(-c2cc3sc(C(C(=O)NCC(=O)NC4CC4)S(=O)(=O)C(C)C)nc3cc2C)cnn1` (stereo not drawn) [Example 257, N-[(cyclopropyl-carbamoyl)methyl]-2-[5-methyl-6-(6-methylpyridazin-4-yl)-1,3-benzothiazol-2-yl]-2-(propane-2-sulfonyl) acetamide], the half-inhibitory concentration (IC50) was 11 nM. Turning to `Cc1cc2nc(C(C(=O)NCC(=O)NC3CC3)S(=O)(=O)C(C)C)sc2cc1-c1ccc2c(c1)C(=O)NC2` (stereo not drawn) [Example 258, N-[(cyclopropyl-carbamoyl)methyl]-2-[5-methyl-6-(3-oxo-2,3-dihydro-1H-isoindol-5-yl)-1,3-benzothiazol-2-yl]-2-(propane-2-sulfonyl) acetamide], the IC50 amounted to 19 nM. Compound `Cc1cc2nc(C(C(=O)NCC(=O)NC3CC3)S(=O)(=O)C(C)C)sc2cc1-c1ccc(C(=O)N2CCC2)cc1` (stereo not drawn) [Example 259, 2-{6-[4-(azetidine-1-carbonyl)phenyl]-5-methyl-1,3-benzothiazol-2-yl}-N-[(cyclopropyl-carbamoyl)methyl]-2-(propane-2-sulfonyl)acetamide] yielded a concentration for half-maximal inhibition (IC50) of 3 nM. Take `Cc1cc2nc(C(C(=O)NCC(=O)NC3CC3)S(=O)(=O)C(C)C)sc2cc1-c1ccc2cnn(C)c2c1` (stereo not drawn) [Example 260, N-[(cyclopropyl-carbamoyl)methyl]-2-[5-methyl-6-(1-methyl-1H-indazol-6-yl)-1,3-benzothiazol-2-yl]-2-(propane-2-sulfonyl)acetamide]: the midpoint of inhibition, the IC50, lay at 7 nM. As for `Cc1cc2nc(C(C(=O)NCC(=O)NC3CC3)S(=O)(=O)C(C)C)sc2cc1-c1ccc(-c2ccccn2)cc1` (stereo not drawn) [Example 261, N-[(cyclopropyl-carbamoyl)methyl]-2-{5-methyl-6-[4-(pyridin-2-yl)phenyl]-1,3-benzothiazol-2-yl}-2-(propane-2-sulfonyl) acetamide], the half-maximal inhibitory concentration (IC50) worked out at 4 nM. For `Cc1ccc(-c2cc3nc(C(C(=O)NCC(=O)NC4CC4)S(=O)(=O)C(C)C)sc3cc2F)cn1` (stereo not drawn) [Example 262, N-[(cyclopropyl-carbamoyl)methyl]-2-[6-fluoro-5-(6-methylpyridin-3-yl)-1,3-benzothiazol-2-yl]-2-(propane-2-sulfonyl)acetamide], the concentration for half-maximal inhibition (IC50) was determined as 10 nM. The figure for `CC(C)S(=O)(=O)C(C(=O)NCC(=O)NC1CC1)c1nc2cc(-c3ccc(F)nc3)c(F)cc2s1` (stereo not drawn) [Example 263, N-[(cyclopropyl-carbamoyl)methyl]-2-[6-fluoro-5-(6-fluoropyridin-3-yl)-1,3-benzothiazol-2-yl]-2-(propane-2-sulfonyl)acetamide] is 13 nM; for `Cc1cc(-c2cc3nc(C(C(=O)NCC(=O)NC4CC4)S(=O)(=O)C(C)C)sc3cc2F)ccn1` (stereo not drawn) [Example 264, N-[(cyclopropyl-carbamoyl)methyl]-2-[6-fluoro-5-(2-methylpyridin-4-yl)-1,3-benzothiazol-2-yl]-2-(propane-2-sulfonyl)acetamide] it is 7 nM; for `CC(C)c1ccc(-c2cc3nc(C(C(=O)NCC(=O)NC4CC4)S(=O)(=O)C(C)C)sc3cc2F)cn1` (stereo not drawn) [Example 265, N-[(cyclopropyl-carbamoyl)methyl]-2-{6-fluoro-5-[6-(propan-2-yl)pyridin-3-yl]-1,3-benzothiazol-2-yl}-2-(propane-2-sulfonyl)acetamide] it is 4 nM. Compound `CC(C)S(=O)(=O)C(C(=O)NCC(=O)NC1CC1)c1nc2cc(-c3ccc4c(c3)CC(=O)N4)c(F)cc2s1` (stereo not drawn) [Example 266, N-[(cyclopropyl-carbamoyl)methyl]-2-[6-fluoro-5-(2-oxo-2,3-dihydro-1H-indol-5-yl)-1,3-benzothiazol-2-yl]-2-(propane-2-sulfonyl)acetamide] had an IC50 of 38 nM.

As to `CC(C)S(=O)(=O)C(C(=O)NCC(=O)NC1CC1)c1nc2cc(-c3ccc4c(=O)n(C)ccc4c3)c(F)cc2s1` (stereo not drawn) [Example 267, N-[(cyclopropyl-carbamoyl)methyl]-2-[6-fluoro-5-(2-methyl-1-oxo-1,2-dihydro-isoquinolin-6-yl)-1,3-benzothiazol-2-yl]-2-(propane-2-sulfonyl) acetamide], it took 5 nM to reach half-maximal inhibition (IC50).
